Assay results: ChEMBL document CHEMBL4020785, “Switching subtype-selectivity: Fragment replacement strategy affords novel class of peroxisome proliferator-activated receptor α/δ (PPARα/δ) dual agonists” (Bioorg Med Chem Lett, 2017)
Calls of active or inactive are those of the source. The rule behind the calls is not given here.

Experiments:
[1] = target: T1, Peroxisome proliferator-activated receptor alpha (Homo sapiens, UniProt Q07869)
T1 sequence (Q07869 whole entry): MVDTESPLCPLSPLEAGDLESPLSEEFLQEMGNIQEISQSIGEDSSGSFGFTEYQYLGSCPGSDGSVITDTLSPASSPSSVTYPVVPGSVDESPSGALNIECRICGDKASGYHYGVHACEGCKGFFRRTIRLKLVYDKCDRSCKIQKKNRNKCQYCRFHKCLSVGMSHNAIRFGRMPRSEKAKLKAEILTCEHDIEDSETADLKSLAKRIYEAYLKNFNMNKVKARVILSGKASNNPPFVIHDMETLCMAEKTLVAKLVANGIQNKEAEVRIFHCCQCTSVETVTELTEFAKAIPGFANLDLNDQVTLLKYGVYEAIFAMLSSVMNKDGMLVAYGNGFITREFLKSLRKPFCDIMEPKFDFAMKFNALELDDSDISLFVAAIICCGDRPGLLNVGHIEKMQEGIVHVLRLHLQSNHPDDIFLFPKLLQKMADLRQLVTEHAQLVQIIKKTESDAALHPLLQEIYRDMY

[2] = target: T1, Peroxisome proliferator-activated receptor alpha; test: Agonist activity at GAL4N fused human PPARalpha LBD expressed in HEK293 cells co-expressing TK-MH100x4-Luc after 24 hrs by luciferase reporter gene assay; type: cell-based
[3] = target: T2, Peroxisome proliferator-activated receptor gamma (Homo sapiens) (UniProt P37231); test: Agonist activity at GAL4N fused human PPARgamma LBD expressed in HEK293 cells co-expressing TK-MH100x4-Luc at less than 30 uM after 24 hrs by luciferase reporter gene assay; type: cell-based
T2 sequence (whole entry): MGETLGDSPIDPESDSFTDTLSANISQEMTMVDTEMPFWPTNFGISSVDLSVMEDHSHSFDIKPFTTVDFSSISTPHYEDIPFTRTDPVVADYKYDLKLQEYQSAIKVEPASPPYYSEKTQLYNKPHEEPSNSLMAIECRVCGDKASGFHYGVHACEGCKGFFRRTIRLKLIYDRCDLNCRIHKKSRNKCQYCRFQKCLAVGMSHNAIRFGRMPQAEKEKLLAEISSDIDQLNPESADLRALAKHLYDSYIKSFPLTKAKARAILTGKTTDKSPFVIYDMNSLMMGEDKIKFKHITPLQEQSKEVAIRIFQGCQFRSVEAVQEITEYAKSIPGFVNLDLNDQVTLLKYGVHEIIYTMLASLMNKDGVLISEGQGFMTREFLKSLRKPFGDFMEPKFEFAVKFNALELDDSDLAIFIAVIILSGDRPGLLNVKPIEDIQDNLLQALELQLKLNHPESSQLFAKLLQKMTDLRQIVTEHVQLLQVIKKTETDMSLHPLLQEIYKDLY

[4] = target: T3, Peroxisome proliferator-activated receptor delta (Homo sapiens) (UniProt Q03181); test: Agonist activity at GAL4N fused human PPARdelta LBD expressed in HEK293 cells co-expressing TK-MH100x4-Luc after 24 hrs by luciferase reporter gene assay relative to GW501516; type: cell-based
T3 sequence (whole entry): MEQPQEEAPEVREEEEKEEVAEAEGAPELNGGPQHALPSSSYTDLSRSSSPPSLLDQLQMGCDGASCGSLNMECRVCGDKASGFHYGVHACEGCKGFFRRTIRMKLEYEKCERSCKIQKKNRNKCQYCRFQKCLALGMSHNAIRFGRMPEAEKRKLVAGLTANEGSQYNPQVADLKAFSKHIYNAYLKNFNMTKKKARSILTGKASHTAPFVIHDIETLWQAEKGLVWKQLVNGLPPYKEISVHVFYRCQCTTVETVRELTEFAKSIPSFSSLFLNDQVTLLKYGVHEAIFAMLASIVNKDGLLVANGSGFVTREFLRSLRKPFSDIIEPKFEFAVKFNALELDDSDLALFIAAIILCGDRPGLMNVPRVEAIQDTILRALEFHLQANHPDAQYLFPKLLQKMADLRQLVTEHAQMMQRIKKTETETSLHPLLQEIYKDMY

[5] = target: T4, Peroxisome proliferator-activated receptor delta (Homo sapiens, UniProt Q03181); test: Agonist activity at GAL4N fused human PPARdelta LBD expressed in HEK293 cells co-expressing TK-MH100x4-Luc after 24 hrs by luciferase reporter gene assay; type: cell-based
T4 sequence (Q03181 whole entry): T3 sequence (whole entry)

[6] = target: T5, Peroxisome proliferator-activated receptor alpha (Homo sapiens) (UniProt Q07869); test: Agonist activity at GAL4N fused human PPARalpha LBD expressed in HEK293 cells co-expressing TK-MH100x4-Luc after 24 hrs by luciferase reporter gene assay relative to GW7647; type: cell-based
T5 sequence (whole entry): T1 sequence (Q07869 whole entry)

[7] = target: T3, Peroxisome proliferator-activated receptor delta (Homo sapiens); test: Agonist activity at GAL4N fused human PPARdelta LBD expressed in HEK293 cells co-expressing TK-MH100x4-Luc at less than 30 uM after 24 hrs by luciferase reporter gene assay; type: cell-based
[8] = target: T5, Peroxisome proliferator-activated receptor alpha (Homo sapiens); test: Agonist activity at GAL4N fused human PPARalpha LBD expressed in HEK293 cells co-expressing TK-MH100x4-Luc at less than 30 uM after 24 hrs by luciferase reporter gene assay; type: cell-based
[9] = target: T6, Peroxisome proliferator-activated receptor gamma (Homo sapiens, UniProt P37231); test: Agonist activity at GAL4N fused human PPARgamma LBD expressed in HEK293 cells co-expressing TK-MH100x4-Luc after 24 hrs by luciferase reporter gene assay; type: cell-based
T6 sequence (P37231 whole entry): T2 sequence (whole entry)

[10] = target: T2, Peroxisome proliferator-activated receptor gamma (Homo sapiens); test: Agonist activity at GAL4N fused human PPARgamma LBD expressed in HEK293 cells co-expressing TK-MH100x4-Luc after 24 hrs by luciferase reporter gene assay relative to rosiglitazone; type: cell-based
[11] = target: T7, Peroxisome proliferator-activated receptor alpha (Mus musculus, UniProt P23204); test: Agonist activity at 3' GAL4 DNA binding domain fused mouse PPARalpha LBD expressed in U-2 OS cells after 40 hrs by luciferase reporter gene assay; type: cell-based
T7 sequence (P23204 whole entry): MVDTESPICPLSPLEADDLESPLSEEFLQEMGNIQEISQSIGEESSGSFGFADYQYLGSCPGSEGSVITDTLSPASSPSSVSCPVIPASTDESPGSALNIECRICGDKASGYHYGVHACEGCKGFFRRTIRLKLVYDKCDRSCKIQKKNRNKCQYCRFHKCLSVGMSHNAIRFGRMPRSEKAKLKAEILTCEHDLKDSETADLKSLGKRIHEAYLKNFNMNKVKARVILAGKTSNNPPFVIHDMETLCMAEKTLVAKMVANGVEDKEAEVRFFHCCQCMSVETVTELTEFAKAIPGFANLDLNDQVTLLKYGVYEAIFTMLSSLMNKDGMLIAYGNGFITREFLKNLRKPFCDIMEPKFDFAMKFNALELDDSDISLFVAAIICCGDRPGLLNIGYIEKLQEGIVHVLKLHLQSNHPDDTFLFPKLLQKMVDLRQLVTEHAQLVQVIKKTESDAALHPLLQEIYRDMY

[12] = target: T3, Peroxisome proliferator-activated receptor delta (Homo sapiens); test: Agonist activity at GAL4N fused human PPARdelta LBD expressed in HEK293 cells co-expressing TK-MH100x4-Luc at 50 uM after 24 hrs by luciferase reporter gene assay relative to control; type: cell-based

Row | EC50 [1] [nM] | EC50 [2] [nM] | Activity [3] | Efficacy [4] [%] | EC50 [5] [nM] | Efficacy [6] [%] | Activity [7] | Activity [8] | EC50 [9] [nM] | Efficacy [10] [%] | EC50 [11] [nM] | Efficacy [12] [%] | Compound
1 | 2800 |  |  |  |  |  |  |  |  |  |  |  | CCO[C@@H](Cc1ccc(OCCN2c3ccccc3Oc3ccccc32)cc1)C(=O)O [RAGAGLITAZAR]
2 |  | 470 | inactive | 2 to 9 | 450 | 7 to 17 |  |  |  |  |  |  | CC(=O)NC(C)c1nc(-c2ccc(OCCN3c4ccccc4Oc4ccccc43)cc2)no1 (stereo unspecified)
3 |  |  | inactive |  |  |  | inactive | inactive |  |  |  |  | CC(=O)N[C@H](C)c1nc(-c2ccc(OCCc3ccc(OS(C)(=O)=O)cc3)cc2)no1
4 |  | 1200 | inactive | 7 to 18 | 1600 | 13 to 37 |  |  |  |  |  |  | CC(=O)NC(C)c1nc(-c2ccc(OCCc3ccc(OS(C)(=O)=O)cc3)cc2)no1 (stereo unspecified)
5 |  | 880 | inactive | 5 to 14 | 970 | 3 to 15 |  |  |  |  |  |  | CC(=O)NC(C)c1nc(-c2ccc(OCC=C(c3ccc(Br)cc3)c3ccc(Br)cc3)cc2)no1 (stereo unspecified)
6 |  | 5400 |  | 16 to 45 | 31000 | 87 to 129 |  |  | 18000 | 39 to 51 |  |  | CCOC(Cc1ccc(Oc2ccc(OCc3ccccc3)cc2)cc1)C(=O)O (stereo unspecified)
7 |  | 450 | inactive | 4 to 19 | 990 | 13 to 33 |  |  |  |  |  |  | CC(=O)N[C@@H](C)c1nc(-c2ccc(OCCc3ccc(OS(C)(=O)=O)cc3)cc2)no1
8 |  | 240 | inactive | 2 to 11 | 320 | 17 to 27 |  |  |  |  |  |  | CC(=O)NC(C)c1nc(-c2ccc(OCCCOc3ccc(Oc4ccccc4)cc3)cc2)no1 (stereo unspecified)
9 |  | 3800 |  |  |  | 122 to 186 |  |  | 360 | 119 to 130 | 1700 | 38 | CCO[C@@H](Cc1ccc(OCCc2ccc(OS(C)(=O)=O)cc2)cc1)C(=O)O [TESAGLITAZAR]
